{
  "source": "paper PMC7345279",
  "about": "(Antibiotics, 2020)",
  "key": {"plasma proteins": {"system": "plasma proteins", "conditions": "cited from earlier work"}, "human plasma proteins": {"system": "human plasma proteins", "assay": "Unbound fraction / protein binding of FLU in pooled plasma, alone and with a second drug (ultrafiltration, LC-MS/MS)", "conditions": "for FLU bound %: Pooled Plasma; for %Unbound / Measured Unbound Conc in Plasma / Measured Total Conc in Plasma: pooled plasma, alone, listed as FLU alone"}, "[1]": {"assay": "Unbound fraction / protein binding of FLU in pooled plasma, alone and with a second drug (ultrafiltration, LC-MS/MS)", "conditions": "human, plasma"}, "[2]": {"system": "α-1-acid glycoprotein (AGP)", "assay": "Binding of FLU to AGP solutions (0.9 and […]), alone and with IMA (ultrafiltration, LC-MS/MS)", "conditions": "for % Unb / Total conc / Unb Conc: alone"}, "HSA": {"molecular_target": "HSA (Homo sapiens, UniProt P02768)", "sequence (P02768 25-609)": "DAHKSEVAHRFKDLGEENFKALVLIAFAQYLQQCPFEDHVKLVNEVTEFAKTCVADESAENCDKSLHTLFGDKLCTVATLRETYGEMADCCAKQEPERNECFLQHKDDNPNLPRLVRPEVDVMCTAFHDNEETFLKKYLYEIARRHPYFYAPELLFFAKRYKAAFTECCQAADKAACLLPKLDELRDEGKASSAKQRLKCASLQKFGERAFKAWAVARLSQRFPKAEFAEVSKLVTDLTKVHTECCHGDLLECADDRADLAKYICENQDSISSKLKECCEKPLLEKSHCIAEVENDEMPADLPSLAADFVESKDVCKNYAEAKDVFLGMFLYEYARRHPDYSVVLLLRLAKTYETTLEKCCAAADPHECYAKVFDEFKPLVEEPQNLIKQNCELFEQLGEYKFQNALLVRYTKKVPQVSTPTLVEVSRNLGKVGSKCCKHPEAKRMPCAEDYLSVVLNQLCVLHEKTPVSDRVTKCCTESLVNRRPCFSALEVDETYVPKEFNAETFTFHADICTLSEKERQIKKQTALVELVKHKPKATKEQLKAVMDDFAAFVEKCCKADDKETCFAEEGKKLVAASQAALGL", "assay": "Binding of FLU to HSA solutions (40 and 25 g/L), alone and with anticancer agents (ultrafiltration, LC-MS/MS)", "conditions": "for % Unb / Total conc / Unb Conc: alone"}},
  "note": "“And” between values parts separate entries of the source, which are not always exact repeats. Equal values may be shown once. Read-outs that look alike come from different tables or passages of the source.",
  "data": [
    {"smiles": "O=c1[nH]cc(F)c(=O)[nH]1", "note": "[5-FU, 5-fluorouracil]", "values": [
      {"measurement": "protein binding", "setting": "plasma proteins; ref 63", "value": "8–12%"}
    ]},
    {"smiles": "Cc1onc(-c2c(F)cccc2Cl)c1C(=O)N[C@@H]1C(=O)N2[C@@H]1SC(C)(C)[C@@H]2C(=O)O", "note": "[FLU, Flucloxacillin]", "values": [
      {"measurement": "FLU bound %", "setting": "human plasma proteins; FLU 0.2 µg/mL", "value": 99.11, "unit": "%"},
      {"measurement": "FLU bound %", "setting": "human plasma proteins; FLU 20 µg/mL", "value": 98.85, "unit": "%"},
      {"measurement": "%Unbound", "setting": "human plasma proteins; FLU 0.2 µg/mL", "value": "0.7% and 0.78%"},
      {"measurement": "Measured Unbound Conc in Plasma", "setting": "human plasma proteins; FLU 0.2 µg/mL", "value": "0.0016 µg/mL and 0.0023 µg/mL"},
      {"measurement": "%Unbound", "setting": "human plasma proteins; FLU 20 µg/mL", "value": "0.98% and 0.76% and 0.73%"},
      {"measurement": "Measured Unbound Conc in Plasma", "setting": "human plasma proteins; FLU 20 µg/mL", "value": "0.1275 µg/mL and 0.21 µg/mL and 0.1766 µg/mL and 0.152 µg/mL"},
      {"measurement": "Measured Total Conc in Plasma", "setting": "human plasma proteins; FLU spiked 0.2 µg/mL", "value": "0.24 µg/mL and 0.23 µg/mL and 0.28 µg/mL"},
      {"measurement": "Measured Total Conc in Plasma", "setting": "human plasma proteins; FLU spiked 20 µg/mL", "value": "21.76 µg/mL and 21.18 µg/mL and 23.09 µg/mL and 20.722 µg/mL"},
      {"measurement": "fraction unbound at 30 min, 0.2 µg/mL", "setting": "[1]; %Unbound, pooled plasma, FLU 0.2 µg/mL, alone", "value": 0.0066},
      {"measurement": "fraction unbound at 30 min, 20 µg/mL", "setting": "[1]; %Unbound, pooled plasma, FLU 20 µg/mL, alone", "value": 0.0059},
      {"measurement": "fraction unbound at 30 min", "setting": "[1]; protein binding of FLU, spiked pooled plasma, 37 °C, 30 min, range over tested FLU concentrations", "value": "0.0059 to 0.0098"},
      {"measurement": "% Unb", "setting": "[2]; AGP 0.9 g/L, FLU 0.2 µg/mL", "value": 39.08, "unit": "%"},
      {"measurement": "Total conc", "setting": "[2]; AGP 0.9 g/L, FLU 0.2 µg/mL", "value": 0.261, "unit": "µg/mL"},
      {"measurement": "Unb Conc", "setting": "[2]; AGP 0.9 g/L, FLU 0.2 µg/mL", "value": 0.1019, "unit": "µg/mL"},
      {"measurement": "% Unb", "setting": "[2]; AGP 0.9 g/L, FLU 20 µg/mL", "value": 22.11, "unit": "%"},
      {"measurement": "Total conc", "setting": "[2]; AGP 0.9 g/L, FLU 20 µg/mL", "value": 21.060, "unit": "µg/mL"},
      {"measurement": "Unb Conc", "setting": "[2]; AGP 0.9 g/L, FLU 20 µg/mL", "value": 4.6563, "unit": "µg/mL"},
      {"measurement": "% Unb", "setting": "[2]; AGP […], FLU 0.2 µg/mL", "value": 32.04, "unit": "%"},
      {"measurement": "Total conc", "setting": "[2]; AGP […], FLU 0.2 µg/mL", "value": 0.266, "unit": "µg/mL"},
      {"measurement": "Unb Conc", "setting": "[2]; AGP […], FLU 0.2 µg/mL", "value": 0.0852, "unit": "µg/mL"},
      {"measurement": "% Unb", "setting": "[2]; AGP […], FLU 20 µg/mL", "value": 20.62, "unit": "%"},
      {"measurement": "Total conc", "setting": "[2]; AGP […], FLU 20 µg/mL", "value": 20.745, "unit": "µg/mL"},
      {"measurement": "Unb Conc", "setting": "[2]; AGP […], FLU 20 µg/mL", "value": 4.2773, "unit": "µg/mL"},
      {"measurement": "FLU bound %", "setting": "[2]; AGPs (0.9 g/l), FLU 0.2 µg/mL", "value": 60.92, "unit": "%"},
      {"measurement": "FLU bound %", "setting": "[2]; AGPs ([…]), FLU 0.2 µg/mL", "value": 67.96, "unit": "%"},
      {"measurement": "FLU bound %", "setting": "[2]; AGPs ([…]), FLU 20 µg/mL", "value": 79.38, "unit": "%"},
      {"measurement": "FLU bound %", "setting": "HSA; Albumin (25 g/l), FLU 0.2 µg/mL", "value": 94.91, "unit": "%"},
      {"measurement": "FLU bound %", "setting": "HSA; Albumin (25 g/l), FLU 20 µg/mL", "value": 93.49, "unit": "%"},
      {"measurement": "FLU bound %", "setting": "HSA; Albumin (40 g/l), FLU 0.2 µg/mL", "value": 94.39, "unit": "%"},
      {"measurement": "FLU bound %", "setting": "HSA; Albumin (40 g/l), FLU 20 µg/mL", "value": 93.98, "unit": "%"},
      {"measurement": "% Unb", "setting": "HSA; HSA 25 g/L, FLU 0.2 µg/mL", "value": 5.09, "unit": "%"},
      {"measurement": "Total conc", "setting": "HSA; HSA 25 g/L, FLU 0.2 µg/mL", "value": 0.232, "unit": "µg/mL"},
      {"measurement": "Unb Conc", "setting": "HSA; HSA 25 g/L, FLU 0.2 µg/mL", "value": 0.012, "unit": "µg/mL"},
      {"measurement": "% Unb", "setting": "HSA; HSA 25 g/L, FLU 20 µg/mL", "value": 6.51, "unit": "%"},
      {"measurement": "Total conc", "setting": "HSA; HSA 25 g/L, FLU 20 µg/mL", "value": 18.214, "unit": "µg/mL"},
      {"measurement": "Unb Conc", "setting": "HSA; HSA 25 g/L, FLU 20 µg/mL", "value": 1.182, "unit": "µg/mL"},
      {"measurement": "% Unb", "setting": "HSA; HSA 40 g/L, FLU 0.2 µg/mL", "value": 5.61, "unit": "%"},
      {"measurement": "Total conc", "setting": "HSA; HSA 40 g/L, FLU 0.2 µg/mL", "value": 0.197, "unit": "µg/mL"},
      {"measurement": "Unb Conc", "setting": "HSA; HSA 40 g/L, FLU 0.2 µg/mL", "value": 0.011, "unit": "µg/mL"},
      {"measurement": "% Unb", "setting": "HSA; HSA 40 g/L, FLU 20 µg/mL", "value": 6.02, "unit": "%"},
      {"measurement": "Total conc", "setting": "HSA; HSA 40 g/L, FLU 20 µg/mL", "value": 16.04, "unit": "µg/mL"},
      {"measurement": "Unb Conc", "setting": "HSA; HSA 40 g/L, FLU 20 µg/mL", "value": 0.966, "unit": "µg/mL"},
      {"measurement": "fraction unbound at 30 min", "setting": "HSA; human", "value": "0.0561 to 0.0602"},
      {"measurement": "binding to plasma proteins", "setting": "plasma proteins; healthy patients", "value": "95–97%"},
      {"measurement": "typical unbound fraction", "setting": "plasma proteins; patients with normal HSA (>42 g/L)", "value": "3–5%"},
      {"measurement": "bound to plasma proteins", "setting": "plasma proteins; ref 13, 17, 38", "value": "more than 95%"},
      {"measurement": "protein binding of FLU in other studies", "setting": "plasma proteins; ref 36", "value": 95, "unit": "%"},
      {"measurement": "protein binding of FLU in other studies", "setting": "plasma proteins; ref 38", "value": 93, "unit": "%"}
    ]},
    {"smiles": "Cc1ccc(NC(=O)c2ccc(CN3CCN(C)CC3)cc2)cc1Nc1nccc(-c2cccnc2)n1", "note": "[IMA, imatinib]", "values": [
      {"measurement": "bound to human plasma proteins", "setting": "plasma proteins; ref 54", "value": 95, "unit": "%"}
    ]}
  ]
}
